Results as given in patent US9334263B2, “Compositions useful for treating disorders related to kit” (BLUEPRINT MEDICINES CORPORATION, priority 2013, dated 2016).

What was measured:
wild type Kit = target: T1, wild type Kit (Homo sapiens, UniProt P10721); assay: Kit wild type assay at Km (Caliper electrophoretic mobility shift); type: biochemical; details: 400 uM ATP, 25 C, 90 minutes; read-out: WT KIT
T1 construct: purchased Carna Bioscience 08-156
Description: In order to assess the activity of chemical compounds against the relevant kinase of interest, the Caliper LifeSciences electrophoretic mobility shift technology platform is used. Fluorescently labeled substrate peptide is incubated in the presence of kinase and ATP so that a […] proportion of the peptide is phosphorylated. At the end of the reaction, the mix of phosphorylated (product) and non-phosphorylated (substrate) peptides are passed through the microfluidic system of the Caliper EZ Reader 2, under an applied potential difference. The presence of the phosphate group on the product peptide provides a difference in mass and charge between those of the substrate peptide, resulting in a separation of the substrate and product pools in the sample. As the pools pass a LEDS within the instrument, these pools are detected and resolved as separate peaks. The ratio between these peaks therefore reflects the activity of the chemical matter at that concentration in that well, under those conditions.
The reaction was stopped by the addition of 70 ul of Stop buffer (100 mM HEPES pH 7.5, 0.015% Brij 35, 35 mM EDTA and 0.2% of Coating Reagent 3 (Caliper Lifesciences)). The plate was then read on a Caliper EZReader 2 (protocol settings: −1.9 psi, upstream voltage −700, downstream voltage −3000, post sample sip 35 s).

D816V Kit = target: T2, D816V Kit (Homo sapiens, UniProt P10721, D816V); assay: Kit D816V assay at Km (Caliper electrophoretic mobility shift); type: biochemical; details: 15 uM ATP, 25 C, 90 minutes
T2 construct: purchased Carna Bioscience 08-156
T2 sequence (P10721 26-976 D816V): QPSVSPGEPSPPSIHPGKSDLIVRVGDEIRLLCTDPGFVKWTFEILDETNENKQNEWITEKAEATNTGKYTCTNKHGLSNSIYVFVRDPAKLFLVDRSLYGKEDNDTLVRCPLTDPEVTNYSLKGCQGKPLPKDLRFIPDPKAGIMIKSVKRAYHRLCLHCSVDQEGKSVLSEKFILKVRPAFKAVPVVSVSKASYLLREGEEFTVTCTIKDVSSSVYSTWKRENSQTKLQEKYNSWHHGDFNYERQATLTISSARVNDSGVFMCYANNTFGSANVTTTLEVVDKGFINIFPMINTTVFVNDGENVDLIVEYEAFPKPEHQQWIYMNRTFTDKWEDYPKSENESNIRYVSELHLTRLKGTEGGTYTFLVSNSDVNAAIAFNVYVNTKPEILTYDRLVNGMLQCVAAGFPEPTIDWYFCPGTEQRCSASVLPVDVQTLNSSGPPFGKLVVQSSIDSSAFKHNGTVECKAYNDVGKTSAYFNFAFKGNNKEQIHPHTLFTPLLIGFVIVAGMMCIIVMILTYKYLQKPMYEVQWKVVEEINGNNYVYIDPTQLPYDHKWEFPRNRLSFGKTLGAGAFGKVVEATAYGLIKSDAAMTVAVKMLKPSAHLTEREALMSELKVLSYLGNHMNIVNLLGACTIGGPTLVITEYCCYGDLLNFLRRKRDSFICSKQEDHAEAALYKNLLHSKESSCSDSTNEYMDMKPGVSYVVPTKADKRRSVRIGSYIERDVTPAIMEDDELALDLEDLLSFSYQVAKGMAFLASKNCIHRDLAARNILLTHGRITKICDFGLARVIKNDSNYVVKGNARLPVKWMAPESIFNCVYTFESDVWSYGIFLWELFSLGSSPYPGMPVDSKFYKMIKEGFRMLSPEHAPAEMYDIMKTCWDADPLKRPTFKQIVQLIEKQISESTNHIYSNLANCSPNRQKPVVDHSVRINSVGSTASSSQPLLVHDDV
How it was run: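 Read-out is the ratio of phosphorylated to unphosphorylated fluorescent peptide, resolved by mobility shift on a Caliper EZ Reader 2.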

[1] = target: T3, Kit D816V (HMC1.2 cells, Kit V560G and D816V) (Homo sapiens, UniProt P10721, D816V/V560G); assay: HMC1.2 autophosphorylation assay (AlphaLISA, phospho-Y719 c-Kit); type: cell-based; details: Kit autophosphorylation at tyrosine 719, 90 minutes, read-out: Cellular Activity
T3 construct: endogenous in cells; host or cells: HMC1.2 cells
T3 sequence (P10721 26-976 V560G/D816V): as the sequence (P10721 26-976 D816V) above, with V535G counted along it
How it was run: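 AlphaScreen signal comes from lysed HMC1.2 cells incubated with phospho-Y719 and total c-Kit antibodies (15 nM final), acceptor beads and then streptavidin donor beads, 2 h each at room temperature. Beforehand, cells deprived of serum overnight received compound for 90 min as a 10-point series, 25 uM–95.4 pM, 0.25% DMSO.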

T1 sequence (P10721 26-976): as the sequence (P10721 26-976 D816V) above, with V791D counted along it

Row | SMILES | IC50 (wild type Kit) | IC50 (D816V Kit) | IC50 [1]
1 | COc1cc(Nc2ncnc(N3CCN(c4ncc(Cc5ccccc5)cn4)CC3)n2)cc(OC)c1 [Compound 54] | 100 to 1000 nM | 1.01 to 10 nM | –
2 | c1ccc(Cc2cnc(N3CCN(c4ncnc(Nc5ccc6c(c5)CNCCO6)n4)CC3)nc2)cc1 [Compound 76] | < 10 nM | < 1 nM | 10 to 100 nM
3 | C[C@@H]1CN(c2ncnc(Nc3ccc(P(C)(C)=O)cc3)n2)CCN1c1ncc(Cc2ccccc2)cn1 [Compound 128] | 11 to 100 nM | 1.01 to 10 nM | 100 to 1000 nM
4 | CN1CCC[C@H]1COc1ccc(Nc2ncnc(N3CCN(c4ncc(Cc5ccccc5)c(N)n4)CC3)n2)cc1 [Compound 266] | < 10 nM | < 1 nM | < 10 nM
5 | c1ccc(Cc2cnc(N3CCN(c4ncnc(Nc5cnn(C[C@H]6CCCN6)c5)n4)CC3)nc2)cc1 [Compound 84] | < 10 nM | < 1 nM | 10 to 100 nM
6 | NC(=O)c1ccc(Nc2ncnc(N3CCN(c4ncc(Cc5ccccc5)cn4)CC3)n2)cc1 [Compound 24] | 11 to 100 nM | 1.01 to 10 nM | 100 to 1000 nM
7 | c1ccc(Cc2cnc(N3CCN(c4ncnc(Nc5ccc6c(c5)CNCC6)n4)CC3)nc2)cc1 [Compound 41] | < 10 nM | < 1 nM | 10 to 100 nM
8 | CN1CCC[C@H](Oc2ccc(Nc3ncnc(N4CCN(c5ncc(Cc6ccccc6)cn5)CC4)n3)cc2)C1 [Compound 217] | < 10 nM | < 1 nM | < 10 nM
9 | OCCN1CCc2ccc(Nc3ncnc(N4CCN(c5ncc(Cc6ccccc6)cn5)CC4)n3)cc2C1 [Compound 163] | < 10 nM | < 1 nM | 10 to 100 nM
10 | c1ccc(Cc2cnc(N3CCN(c4ncnc(Nc5ccc6c(c5)NCCC6)n4)CC3)nc2)cc1 [Compound 42] | 11 to 100 nM | 1.01 to 10 nM | 10 to 100 nM
11 | c1ccc(Cc2cnc(N3CCN(c4ncnc(Nc5ccc6c(c5)CNCC6)n4)C(Cc4ccccc4)C3)nc2)cc1 (stereo not drawn) [Compound 274] | 100 to 1000 nM | 10 to 100 nM | –
12 | CC(C)(O)c1cccc(Nc2ncnc(N3CCN(c4ncc(Cc5ccccc5)cn4)CC3)n2)c1 [Compound 50] | 11 to 100 nM | 1.01 to 10 nM | 1000 to 10000 nM
13 | c1ccc(Cc2cnc(N3CCN(c4ncnc(Nc5ccc(OC[C@@H]6CCCN6)cc5)n4)CC3)nc2)cc1 [Compound 170] | 11 to 100 nM | < 1 nM | 10 to 100 nM
14 | CN1CCN(c2ccc(Nc3ncnc(N4CCN(c5ncc(Cc6ccccc6)cn5)CC4)n3)cc2F)CC1 [Compound 237] | 11 to 100 nM | < 1 nM | 10 to 100 nM
15 | c1ccc(Cc2cnc(N3CCN(c4ncnc(Nc5cnn(CC6CCOC6)c5)n4)CC3)nc2)cc1 (stereo not drawn) [Compound 86] | 11 to 100 nM | < 1 nM | 10 to 100 nM
16 | Cc1cc(N2CCN(C)CC2)ccc1Nc1ncnc(N2CCN(c3ncc(Cc4ccccc4)cn3)CC2)n1 [Compound 212] | 11 to 100 nM | 1.01 to 10 nM | 100 to 1000 nM
17 | COCCn1cc(Nc2ncnc(N3CCN(c4ncc(Cc5ccccc5)cn4)CC3)n2)cn1 [Compound 31] | < 10 nM | < 1 nM | 10 to 100 nM
18 | c1ccc(Cc2cnc(N3CCN(c4ncnc(NCCCN5CCOCC5)n4)CC3)nc2)cc1 [Compound 37] | > 1000 nM | > 100 nM | –
19 | OC1(Cn2cc(Nc3ncnc(N4CCN(c5ncc(Cc6ccccc6)cn5)CC4)n3)cn2)CCNCC1 [Compound 182] | 11 to 100 nM | < 1 nM | 10 to 100 nM
20 | FC1(F)CN(Cc2cccc(Nc3ncnc(N4CCN(c5ncc(Cc6ccccc6)cn5)CC4)n3)c2)C1 [Compound 188] | 11 to 100 nM | 1.01 to 10 nM | 10 to 100 nM
21 | c1ccc(Cc2cnc(N3CCN(c4ncnc(Nc5cnn(CC6CCOCC6)c5)n4)CC3)nc2)cc1 [Compound 118] | < 10 nM | < 1 nM | 10 to 100 nM
22 | NS(=O)(=O)c1cccc(Nc2ncnc(N3CCN(c4ncc(Cc5ccccc5)cn4)CC3)n2)c1 [Compound 95] | 11 to 100 nM | < 1 nM | 1000 to 10000 nM
23 | CS(=O)(=O)c1ccc(Nc2ncnc(N3CCN(C(=O)Nc4ccc(C#N)cc4)CC3)n2)cc1 [Compound 40] | 11 to 100 nM | 10 to 100 nM | –
24 | Cc1cc(N2CCNCC2)ccc1Nc1ncnc(N2CCN(c3ncc(Cc4ccccc4)c(N)n3)CC2)n1 [Compound 228] | – | 1.01 to 10 nM | 100 to 1000 nM
25 | c1ccc(OCc2cnc(N3CCN(c4ncnc(Nc5cnn(C[C@@H]6CNCCO6)c5)n4)CC3)nc2)cc1 [Compound 190] | – | 1.01 to 10 nM | 10 to 100 nM

Row | SMILES | IC50 (wild type Kit) | IC50 (D816V Kit) | IC50 [1]
26 | CC(O)(c1ccccc1)c1cnc(N2CCN(c3ncnc(Nc4cnn(C[C@@H]5CNCCO5)c4)n3)CC2)nc1 (stereo partly drawn) [Compound 250] | – | < 1 nM | 10 to 100 nM
27 | CC(C)(O)Cn1cc(Nc2ncnc(N3CCN(c4ncc([C@@](C)(O)c5ccc(F)cc5)cn4)CC3)n2)cn1 [Compound 208] | – | < 1 nM | < 10 nM
28 | C[C@](N)(c1ccc(F)cc1)c1cnc(N2CCN(c3ncnc(Nc4ccc([C@@H](O)CO)cc4)n3)CC2)nc1 [Compound 195] | – | < 1 nM | < 10 nM
29 | c1cncc(Cc2cnc(N3CCN(c4ncnc(Nc5ccc6c(c5)CNCC6)n4)CC3)nc2)c1 [Compound 45] | – | 1.01 to 10 nM | 10 to 100 nM
30 | OC1(c2ccc(Nc3ncnc(N4CCN(c5ncc(Cc6ccccc6)cn5)CC4)n3)cc2)CCCNC1 (stereo not drawn) [Compound 236] | – | < 1 nM | < 10 nM
31 | C[C@](O)(c1ccc(F)cc1)c1cnc(N2CCN(c3ncnc(Nc4cnn(C[C@@H]5CNCCO5)c4)n3)CC2)nc1 [Compound 269] | – | < 1 nM | 10 to 100 nM
32 | c1ccc(Cc2cnc(N3CCN(c4ncnc(Nc5cnn(C6COC6)c5)n4)CC3)nc2)cc1 [Compound 28] | – | < 1 nM | 10 to 100 nM
33 | Fc1cccc(F)c1Cc1cnc(N2CCN(c3ncnc(Nc4ccc5c(c4)CNCC5)n3)CC2)nc1 [Compound 136] | – | 1.01 to 10 nM | 100 to 1000 nM
34 | Fc1ccc(OCc2cnc(N3CCN(c4ncnc(Nc5cnn(C[C@@H]6CNCCO6)c5)n4)CC3)nc2)cc1 [Compound 253] | – | 1.01 to 10 nM | 10 to 100 nM
35 | O=C1CCc2ccc(Nc3ncnc(N4CCN(c5ncc(Cc6ccccc6)cn5)C(CCO)C4)n3)cc2N1 (stereo not drawn) [Compound 213] | – | 1.01 to 10 nM | 10 to 100 nM
36 | C[C@](O)(c1ccccc1)c1cnc(N2CCN(c3ncnc(Nc4ccc(N5CCOCC5)cc4)n3)CC2)nc1 [Compound 235] | – | < 1 nM | < 10 nM
37 | c1ccc(Cc2cnc(N3CCN(c4ncnc(Nc5ccc6c(c5)CCCNC6)n4)CC3)nc2)cc1 [Compound 72] | – | < 1 nM | 10 to 100 nM
38 | Brc1cnc(N2CCN(c3ncnc(Nc4cnn(C[C@@H]5CNCCO5)c4)n3)CC2)nc1 [Compound 91] | – | 1.01 to 10 nM | 1000 to 10000 nM
39 | C[C@@H](O)CN1CCc2ccc(Nc3ncnc(N4CCN(c5ncc(Cc6ccccc6)cn5)CC4)n3)cc2C1 [Compound 220] | – | < 1 nM | 10 to 100 nM
40 | c1ccc(Nc2cnc(N3CCN(c4ncnc(Nc5ccccc5)n4)CC3)nc2)cc1 [Compound 9] | 100 to 1000 nM | 10 to 100 nM | –
41 | Cc1c(Nc2ncnc(N3CCN(c4ncc(Cc5ccccc5)cn4)CC3)n2)cnn1C[C@@H]1CNCCO1 [Compound 185] | – | 1.01 to 10 nM | 10 to 100 nM
42 | CC(C)(O)[C@@H](O)c1ccc(Nc2ncnc(N3CCN(c4ncc(Cc5ccccc5)cn4)CC3)n2)cc1 [Compound 122] | – | < 1 nM | 10 to 100 nM
43 | CC1(C)CNCc2cc(Nc3ncnc(N4CCN(c5ncc(Cc6ccccc6)cn5)CC4)n3)ccc21 [Compound 99] | – | 1.01 to 10 nM | < 10 nM
44 | Cc1nn(C2COC2)cc1Nc1ncnc(N2CCN(c3ncc(Sc4ccccc4F)cn3)CC2)n1 [Compound 146] | – | 1.01 to 10 nM | 10 to 100 nM
45 | Cc1c(Nc2ncnc(N3CCN(c4ncc([C@](C)(O)c5ccc(F)cc5)cn4)CC3)n2)cnn1C[C@@H]1CNCCO1 [Compound 277] | – | < 1 nM | 10 to 100 nM
46 | C[C@@H]1CN(c2ncnc(Nc3cnn(C[C@@H]4CNCCO4)c3)n2)CCN1c1ncc(Cc2ccccc2)cn1 [Compound 183] | – | 1.01 to 10 nM | 10 to 100 nM
47 | c1cnc(N2CCN(c3ncnc(Nc4ccc5c(c4)CNCC5)n3)CC2)nc1 [Compound 2] | – | 1.01 to 10 nM | 1000 to 10000 nM
48 | COc1nc(N2CCN(c3ncnc(Nc4cnn(C[C@@H]5CNCCO5)c4)n3)CC2)ncc1Cc1ccccc1 [Compound 246] | – | 1.01 to 10 nM | 1000 to 10000 nM
49 | N#Cc1ccc(NC(=O)N2CCN(c3ncnc(Nc4ccc(N5CCOCC5)cc4)n3)CC2)cc1 [Compound 59] | 100 to 1000 nM | > 100 nM | –
